In patent US5869234A, “Method of identifying compounds which modulate herpesvirus infection” (President and Fellows of Harvard College, priority 1996, dated 1999):
Ends that are not written are not given here.

What was measured:
[1] = target: T1, protein kinase A type I catalytic subunit (Bos taurus, UniProt P00517); assay: In vitro phosphorylation of a synthetic peptide by PKA; type: biochemical, bovine; details: for Ratio**: ratio defined in footnote drawing 1
T1 construct: purchased Sigma Chem. Co; host or cells: bovine heart
Protocol: (§1) ii) In vitro phosphorylation of a synthetic peptide. A peptide containing a potential protein kinase A site in the serine-rich region of ICP4 (RRRRHGRWRPSASST, residues 165-179) (SEQ ID NO: 2 ) was synthesized on an Applied Biosystems model 430A automated peptide synthesizer and purified by HPLC. Amino acid analysis confirmed the authenticity of this peptide, termed ICP4tide. ICP4tide (100 μM), or Kemptide (LRRASLG, Sigma Inc.), a commercially available substrate for protein kinase A ([…]), was then incubated at 30° C. in a solution containing 24 mM MES (pH 7.0), […], 5.6 nM [^32 P]ATP (300-600 Ci/mmol). Each reaction was subsequently initiated by adding 80 U of protein kinase A type I catalytic subunit purified from bovine heart (Sigma Chem. Co., 1000U/0.016 mg protein) to a final volume of 52.5 μl. Following incubation for 4 minutes, 20 μl of the reaction was spotted onto P81 phosphocellulose strips, and phosphopeptides were quantitated after washing three times in […] of 75 mM phosphoric acid as previously described (Roskoski, R. Jr., Methods in Enzymology, 99:3-6 (1983)). For kinetic studies, the concentration of ICP4tide was varied as indicated. The ICP4tide was also phosphorylated in a manner similar to those described below for phosphorylation of purified ICP4 proteins with PKA except that synthetic peptide replaced the purified ICP4 and the ATP concentration was increased to 60 mM. Such phosphorylated peptides were resolved in a 27% SDS-polyacrylamide gel.
(§2) Accordingly, a peptide, named ICP4tide (RRRRHGRWRPSASST, residues 165-179) (SEQ ID NO: 2), corresponding to this potential site was synthesized and incubated in vitro with purified type I catalytic subunits of PKA and [γ-^32 P]ATP. Kemptide (LRRASLG) (SEQ ID NO: 5), a commercially available substrate for PKA, was used as a positive control.
(§3) To determine the Km values of these reactions, we incubated different concentrations of ICP4tide with [Y-^32 P]ATP and a fixed amount of PKA catalytic subunits (80 U each) for 4 min at 30° C. Varying amounts of ICP4tide were incubated with […] of PKA and 60 μM ATP, and the incorporation of ^32 P into ICP4tide was determined. From the Lineweaver-Burk representation of the data, the Km was determined as described (Michael, N., Spector, D., Mavromara-Nazos, P., Kristie, T. M. and Roizman, B., Science, 239:1531-1534 (1988)). […] Thus, the synthetic ICP4tide could be considered to be a good substrate for PKA in vitro.

ICP4 = assay: In vitro phosphorylation of purified ICP4 without added kinase; type: biochemical, HSV-1; details: 1 mM
Protocol: In vitro phosphorylation of purified ICP4 proteins with PKA or without added kinase. Approximately 20 ng of the ICP4 protein purified as described previously (Imbalzano, A. N., Shepard, A. A. and DeLuca, N. A., J. Virol., 64:2620-2631 (1990)) was added to a solution containing 10 mM Tris (pH 7.2), 10 mM MgCl2, 50 mM NaCl, 10 mM DTT and 20 μM (0.15 mCi) [γ-^32 P]ATP. The phosphorylation reaction was initiated by adding 60 U of protein kinase A type I catalytic subunit purified from bovine heart (Sigma Chem. Co., 1000 U/0.016 mg protein). Reaction mixtures were incubated at 30° C. for 30 min and stopped by addition of SDS-sample buffer. Equal portions of the reactions were analyzed by SDS-PAGE and transferred onto a nitrocellulose sheet for exposure to Kodak X-AR film and for staining with an ICP4-specific antibody. In some cases, the reaction mixtures were terminated by addition of 0.5 ml lysis buffer, and immunoprecipitation was conducted exactly as described above.
When an equivalent amount of d8-10 ICP4 protein was incubated, no labeled band was observed (Example 1; FIG. 5A, lane 3). The amount of phosphorylation in the absence of added enzyme was approximately one-tenth the level of phosphorylation in the presence of PKA. This phosphorylation in the absence of added enzyme may have resulted from an enzyme tightly bound to ICP4 or from an activity intrinsic to ICP4 itself. […]

viral DNA synthesis = details: cited from earlier work
[2] = system: CC(C)C[C@H](NC(=O)[C@H](CO)NC(=O)[C@H](C)NC(=O)[C@H](CCCNC(=N)N)NC(=O)[C@H](CCCNC(=N)N)NC(=O)[C@@H](N)CC(C)C)C(=O)NCC(=O)O; assay: In vitro phosphorylation of a synthetic peptide by PKA; type: biochemical, bovine; details: other: Lineweaver-Burk, PKA catalytic subunits, 4 min at 30° C., 60 μM ATP, pH 7.0
Protocol: as §1, §2, §3

[3] = cited from earlier work

Molecule | Phosphorylation (cpm) ([1]; +PKA) | γ^32 P incorporated (%) ([1]; +PKA) | Ratio** ([1]; +PKA) | Phosphorylation (cpm) ([1]; -PKA) | γ^32 P incorporated (%) ([1]; -PKA) | effect on viral DNA synthesis (viral DNA synthesis) | also measured
RRRRHGRWRPSASST [ICP4tide] | 182104 | 6.2 | 26.2 | 6946 | 0.24 |  | Km ([1]; Lineweaver-Burk, PKA catalytic subunits, 4 min at 30° C., 60 μM ATP): 39 µM; phosphorylation by PKA, in words ([1]; compared with Kemptide): strongly phosphorylated
[Mn+2] [Mn^+2] |  |  |  |  |  |  | effect on phosphorylation of ICP4 in the absence of added kinase (ICP4): inhibited
LRRASLG [Kemptide, LRRASLG] | 768687 | 26.1 | 88.5 | 8682 | 0.3 |  | 
Nc1nc2c(ncn2COCCO)c(=O)[nH]1 [acyclovir] |  |  |  |  |  | inhibits viral DNA synthesis | 
protein kinase A type I catalytic subunit (Bos taurus) |  |  |  |  |  |  | Km [2]: 9 µM
Nc1ncnc2c1ncn2[C@@H]1O[C@H](CO)[C@@H](O)[C@@H]1O [vidarabine] |  |  |  |  |  | inhibits viral DNA synthesis | properties in some experimental models [3]: teratogenic, mutagenic and carcinogenic properties
